Results taken from PubChem BioAssay AID1963873 (Molecular Pharmacology Branch, DTP, NCI, 2024).
Active and inactive are the calls of the source. How the source made its calls: active means viability on the fitted dose curve at most 10% of control; inactive means the rest.

Test system: 276233-004-R-J1-PDC KRAS spheroids with HUVEC/MSC, viability
Test: Anticancer human tumor 276233-004-R-J1-PDC patient-derived colon adenocarcinoma cell line growth inhibition [KRAS2]
Details: for IC50: curve of first compound; for viability, T/C: stronger effect = lower value
Summary of the method: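 Combination screen of spheroid viability in tumor-cell co-cultures with endothelial (HUVEC) and mesenchymal stem cell stroma. Each agent was tested in half-log dilutions, topping at clinical Cmax or at 10 microM without a known Cmax.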

[1] = second compound 0.1 µM, first compound 0.01 µM
[2] = second compound 0.1 µM, first compound 0.0316 µM
[3] = second compound 0.1 µM, first compound 0.1 µM
[4] = second compound 0.1 µM, first compound 0.316 µM
[5] = second compound 0.1 µM, first compound 1 µM
[6] = second compound 0.1 µM, first compound 3.16 µM
[7] = second compound 0.316 µM, first compound 0.01 µM
[8] = second compound 0.316 µM, first compound 0.0316 µM
[9] = second compound 0.316 µM, first compound 0.1 µM
[10] = second compound 0.316 µM, first compound 0.316 µM
[11] = second compound 0.316 µM, first compound 1 µM
[12] = second compound 0.316 µM, first compound 3.16 µM
[13] = second compound 1 µM, first compound 0.01 µM
[14] = second compound 1 µM, first compound 0.0316 µM
[15] = second compound 1 µM, first compound 0.1 µM
[16] = second compound 1 µM, first compound 0.316 µM
[17] = second compound 1 µM, first compound 1 µM
[18] = second compound 1 µM, first compound 3.16 µM
[19] = second compound 3.16 µM, first compound 0.01 µM
[20] = second compound 3.16 µM, first compound 0.0316 µM
[21] = second compound 3.16 µM, first compound 0.1 µM
[22] = second compound 3.16 µM, first compound 0.316 µM
[23] = second compound 3.16 µM, first compound 1 µM
[24] = second compound 3.16 µM, first compound 3.16 µM
[25] = second compound 10 µM, first compound 0.01 µM
[26] = second compound 10 µM, first compound 0.0316 µM
[27] = second compound 10 µM, first compound 0.1 µM
[28] = second compound 10 µM, first compound 0.316 µM
[29] = second compound 10 µM, first compound 1 µM
[30] = second compound 10 µM, first compound 3.16 µM
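Wherever IC50 is given: cells exposed to agents for seven days before viability read.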
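Wherever viability, T/C is given: cells exposed to agents for seven days before viability read; 100% = DMSO vehicle control wells and lower values mean fewer viable cells.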

| SMILES | IC50 (second compound 0.1 µM) [µM] | IC50 (second compound 0.316 µM) [µM] | IC50 (second compound 1 µM) [µM] | IC50 (second compound 3.16 µM) [µM] | IC50 (second compound 10 µM) [µM] | viability, T/C [1] [%] | viability, T/C [2] [%] | viability, T/C [3] [%] | viability, T/C [4] [%] | viability, T/C [5] [%] | viability, T/C [6] [%] | viability, T/C [7] [%] | viability, T/C [8] [%] | viability, T/C [9] [%] | viability, T/C [14] [%] | viability, T/C [15] [%] | viability, T/C [20] [%] | viability, T/C [21] [%] | viability, T/C [26] [%] | viability, T/C [27] [%] | also measured |
| --- | --- | --- | --- | --- | --- | --- | --- | --- | --- | --- | --- | --- | --- | --- | --- | --- | --- | --- | --- | --- | --- |
| CC(=O)OC12COC1CC(O)C1(C)C(=O)C(O)C3=C(C)C(OC(=O)C(O)C(NC(=O)OC(C)(C)C)c4ccccc4)CC(O)(C(OC(=O)c4ccccc4)C21)C3(C)C (stereo not given) + CC1OCC2(CCN(c3cnc(Sc4ccnc(N)c4Cl)c(N)n3)CC2)C1N | > 3.16 | > 3.16 | > 3.16 | < 0.01 | < 0.01 | 61.6 | 69.1 | 60 | 73.8 | 66.5 | 76.2 | 70.4 | 72.9 | 65.5 | 75.5 | 84.9 | 39.1 | 50.6 | 44.7 | 42 | viability, T/C [10]: 55.9%; viability, T/C [11]: 66.9%; viability, T/C [12]: 65.4%; viability, T/C [13]: 91.1%; viability, T/C [16]: 84.5%; viability, T/C [17]: 84.3%; viability, T/C [18]: 93.8%; viability, T/C [19]: 47.4%; viability, T/C [22]: 40.5%; viability, T/C [23]: 44.1%; viability, T/C [24]: 40.9%; viability, T/C [25]: 41.6%; viability, T/C [28]: 34.7%; viability, T/C [29]: 42.6%; viability, T/C [30]: 35% |
| CN(C)C/C=C/C(=O)Nc1cc2c(Nc3ccc(F)c(Cl)c3)ncnc2cc1O[C@H]1CCOC1 + CC1OCC2(CCN(c3cnc(Sc4ccnc(N)c4Cl)c(N)n3)CC2)C1N | > 0.1 | > 0.1 | > 0.1 | 0.0833 | > 0.1 | 71.3 | 80.1 | 81.6 | – | – | – | 81.1 | 75.5 | 78.1 | 104 | 79.5 | 54.5 | 48.8 | 50.9 | 55.4 | viability, T/C (second compound 0.1 µM, first compound 0.000316 µM): 95.9%; viability, T/C (second compound 0.1 µM, first compound 0.001 µM): 96.1%; viability, T/C (second compound 0.1 µM, first compound 0.00316 µM): 92.4%; viability, T/C (second compound 0.316 µM, first compound 0.000316 µM): 80.7%; viability, T/C (second compound 0.316 µM, first compound 0.001 µM): 76.6%; viability, T/C (second compound 0.316 µM, first compound 0.00316 µM): 94.3%; viability, T/C (second compound 1 µM, first compound 0.000316 µM): 93.2%; viability, T/C (second compound 1 µM, first compound 0.001 µM): 95.5%; viability, T/C (second compound 1 µM, first compound 0.00316 µM): 104%; viability, T/C [13]: 97.9%; viability, T/C (second compound 3.16 µM, first compound 0.000316 µM): 56.4%; viability, T/C (second compound 3.16 µM, first compound 0.001 µM): 53%; viability, T/C (second compound 3.16 µM, first compound 0.00316 µM): 48.7%; viability, T/C [19]: 51.1%; outcome (second compound 10 µM, first compound 0.000316 µM): inactive; outcome (second compound 10 µM, first compound 0.001 µM): inactive; viability, T/C (second compound 10 µM, first compound 0.00316 µM): 52.6%; outcome [25]: inactive |
| O=C(c1cc(Cc2n[nH]c(=O)c3ccccc23)ccc1F)N1CCN(C(=O)C2CC2)CC1 + CC1OCC2(CCN(c3cnc(Sc4ccnc(N)c4Cl)c(N)n3)CC2)C1N | > 10 | > 10 | > 10 | 0.233 | 0.0707 | – | 75.3 | 84.9 | 85.4 | 81.8 | 79.4 | – | 76.6 | 78.5 | 95.6 | 67.9 | 54.4 | 52.8 | 55.9 | 47.1 | viability, T/C (second compound 0.1 µM, first compound 10 µM): 62.5%; viability, T/C [10]: 65.7%; viability, T/C [11]: 71.7%; viability, T/C [12]: 64.9%; viability, T/C (second compound 0.316 µM, first compound 10 µM): 65%; viability, T/C [16]: 59.4%; viability, T/C [17]: 54.2%; viability, T/C [18]: 51%; viability, T/C (second compound 1 µM, first compound 10 µM): 52.9%; viability, T/C [22]: 45.1%; viability, T/C [23]: 50.6%; viability, T/C [24]: 44.4%; viability, T/C (second compound 3.16 µM, first compound 10 µM): 43.3%; viability, T/C [28]: 41.4%; viability, T/C [29]: 42.7%; viability, T/C [30]: 37.5%; viability, T/C (second compound 10 µM, first compound 10 µM): 36.6% |
